From patent publication US20110233526A1, “PERYLENE DIIMIDE DERIVATIVE AND ORGANIC SEMICONDUCTOR ELEMENT USING THE SAME MATERIAL” (priority 2010, published 2011)

What was measured:
[1] = Electron mobility of TC-PDA-F in an OTFT versus time of exposure to air (air-stability, FIG. 3); type: physicochemical; details: OTFT thin film
Excerpt: Refer to FIG. 1 and FIG. 2 for diagrams respectively schematically showing a BG-TC (Bottom Gate-Top Contact) OTFT and a BG-BC (Bottom Gate-Bottom Contact) OTFT. The BG-TC OTFT 10 has a substrate 11, a gate 12 formed on the substrate 11, a dielectric layer 13 formed on the gate 12, a source 14 and a drain 15 formed over the dielectric layer 13, and an organic semiconductor layer 16 for conducting the source 14 and the drain 15. The BG-BC OTFT 20 has a substrate 21, a gate 22 formed on the substrate 21, a dielectric layer 23 formed on the gate 22, a source 24 and a drain 25 formed on the dielectric layer 23, and an organic semiconductor layer 26 for conducting the source 24 and the drain 25. In one embodiment, the organic semiconductor layers 16 and 26 are fabricated with a soluble process in the atmospheric environment. In one embodiment, the dielectric layers 13 and 23 respectively formed on the substrates 11 and 21 also are fabricated with a soluble process. For example, a liquid-phase deposited silicon dioxide (LPD-SiO2) is formed on a silicon substrate 11 or 21 to function as the dielectric layer 13 or 23, whereby the electron mobility thereof can reach 0.26 cm^2V^−1s^−1. Refer to FIG. 3 for a diagram showing the relationship of the electron mobility of TC-PDA-F and the time of exposure to air.

[2] = Solubility in organic solution; type: physicochemical; details: organic solution (such as toluene)

For `O=C1c2cc(Cl)c3c4c(Cl)cc5c6c(cc(Cl)c(c7c(Cl)cc(c2c37)C(=O)N1Cc1cc(F)cc(C(F)(F)F)c1)c64)C(=O)N(Cc1cc(F)cc(C(F)(F)F)c1)C5=O` [TC-PDA-F], the electron mobility ([1]; after exposure to air for two months (FIG. 3)) was 1.6×10^−5 cm^2V^−1s^−1, the electron mobility ([1]; before exposure to air (FIG. 3)) was 5.34×10^−5 cm^2V^−1s^−1 and the “solubility in organic solution” value [2] was “can be dissolved”.
